Data on 11 compounds can be found in ChEMBL document CHEMBL1201862, “PubChem BioAssay data set” (2004).

Test systems include CCRF-CEM; COLO 205; HCT-15; HOP-62; HOP-92; IGROV-1; K562; LOX IMVI; M14; NCI-H226; OVCAR-5; OVCAR-8; SK-MEL-2; SK-MEL-5; SK-OV-3; SW-620; UO-31; Hs-578T; MDA-MB-435; MDA-N.
Holding throughout (assay): inhibition of tumour cell growth, NCI panel, 48 h

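Compound exposure: 48 hours, 5 concentrations, 96-well plates. The concentration for 50% growth inhibition is given as GI50.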 Activity calls are given as the source filed them. Rule as the data show it: active = GI50 up to about 1.1 µM and inactive = higher.

With `C[C@]12CCc3nonc3C1CC[C@@H]1C2CC[C@]2(C)C(=O)/C(=N\O)CC12` (stereo partly drawn), the GI50 with CCRF-CEM was > 100 µM (inactive); in the experiment with COLO 205, 54.3 µM (inactive); in the experiment with HCT-15 it was more than 100 µM; in the experiment with HOP-62, > 100 µM (inactive); in the experiment on HOP-92, > 100 µM (inactive); with IGROV-1, > 100 µM (inactive). Moreover, the GI50 in the experiment with K562 is > 100 µM (inactive); in the experiment with LOX IMVI it was 46 µM (inactive); with M14 it was > 100 µM (inactive); with NCI-H226, > 100 µM (inactive); with OVCAR-5, > 100 µM (inactive); in the experiment with OVCAR-8, > 100 µM (inactive). Also, the GI50 in the experiment on SK-MEL-2, with SK-MEL-5, in the experiment on SK-OV-3, in the experiment with SW-620 and with UO-31 was > 100 µM (inactive) in each case.

Turning to `Nc1nc(NNc2cccc(F)c2)cc(=O)[nH]1`, the GI50 in the experiment with CCRF-CEM was 43.5 µM (inactive); with COLO 205 it was 23.3 µM (inactive); in the experiment on HCT-15 it was 42.5 µM; in the experiment with HOP-62, 25 µM (inactive); with Hs-578T, 36.8 µM (inactive); in the experiment with IGROV-1 it was 61.9 µM (inactive). The GI50 is 36.1 µM (inactive) with K562; 21.1 µM (inactive) in the experiment with LOX IMVI; 56.5 µM (inactive) in the experiment with M14; 25.9 µM (inactive) in the experiment on MDA-MB-435; > 100 µM (inactive) in the experiment on NCI-H226; > 100 µM (inactive) in the experiment on OVCAR-5. Moreover, the GI50 is 42.4 µM (inactive) with OVCAR-8, 42.7 µM (inactive) with SK-MEL-5, 31.2 µM (inactive) with SW-620 and 89.1 µM (inactive) with UO-31.

With `CC1=C(O)C(=O)C2C(=O)C1C(C)C2c1ccccc1` (stereo not drawn), the GI50 is > 100 µM (inactive) in the experiment on CCRF-CEM; > 100 µM (inactive) with COLO 205; more than 100 µM in the experiment on HCT-15; > 100 µM (inactive) in the experiment with HOP-62; > 100 µM (inactive) in the experiment on HOP-92; > 100 µM (inactive) in the experiment on IGROV-1. Also, the GI50 with K562, in the experiment on LOX IMVI, in the experiment on M14, in the experiment with NCI-H226, in the experiment with OVCAR-5 and in the experiment on OVCAR-8 was > 100 µM (inactive) throughout. Also, the GI50 with SK-MEL-2, in the experiment on SK-MEL-5, in the experiment on SK-OV-3, in the experiment on SW-620 and in the experiment with UO-31 was > 100 µM (inactive) in each case.

With `C[C@@H]1OC(=O)C[C@H]2CC(=O)N(CCC3CN(S(=O)(=O)C(F)(F)F)c4ccc(Cc5ccc6c(c5)C(CCN5C[C@H]7[C@@H](CC(=O)O[C@H]7C)CC5=O)CN6S(=O)(=O)C(F)(F)F)cc43)C[C@@H]21` (stereo partly drawn), the GI50 was > 100 µM (inactive) in the experiment with CCRF-CEM; > 100 µM (inactive) in the experiment with COLO 205; more than 100 µM in the experiment on HCT-15; > 100 µM (inactive) with HOP-62; > 100 µM (inactive) in the experiment on HOP-92; > 100 µM (inactive) in the experiment with K562. Besides, the GI50 in the experiment with LOX IMVI, in the experiment with M14, in the experiment with MDA-MB-435, in the experiment with NCI-H226, in the experiment with OVCAR-5 and in the experiment with OVCAR-8 was > 100 µM (inactive) throughout. The GI50 in the experiment on SK-MEL-2, in the experiment on SK-MEL-5, in the experiment on SK-OV-3, with SW-620 and in the experiment on UO-31 was > 100 µM (inactive) in each case.

Regarding `C[C@]12CCC(=O)C=C1CC[C@@H]1C2CC[C@]2(C)c3nn(-c4ccccc4)nc3CC12` (stereo partly drawn), the GI50 with CCRF-CEM was > 100 µM (inactive); in the experiment with COLO 205, > 100 µM (inactive); in the experiment on HCT-15, more than 100 µM; in the experiment on HOP-62, > 100 µM (inactive); in the experiment with HOP-92, > 100 µM (inactive); with IGROV-1, > 100 µM (inactive). Also, the GI50 with K562, in the experiment with LOX IMVI, with M14, in the experiment with NCI-H226, with OVCAR-5 and in the experiment with OVCAR-8 was > 100 µM (inactive) throughout. In addition, the GI50 with SK-MEL-2, with SK-MEL-5, in the experiment with SK-OV-3, with SW-620 and in the experiment with UO-31 was > 100 µM (inactive) throughout.

As for `O=c1c2ccccc2[nH]c2c(Cl)cc(Cl)c(N3CCCCC3)c12`, the GI50 is > 10 µM (inactive) in the experiment on CCRF-CEM; 37.8 µM (inactive) with COLO 205; 44.8 µM in the experiment with HCT-15; 34 µM (inactive) with HOP-62; 18.6 µM (inactive) in the experiment on IGROV-1; > 10 µM (inactive) with K562. For the same compound, the GI50 in the experiment with LOX IMVI is 41.6 µM (inactive); with M14, 27.3 µM (inactive); in the experiment on MDA-MB-435 it was 22.8 µM (inactive); in the experiment on MDA-N, 24.3 µM (inactive); in the experiment on NCI-H226, 23.7 µM (inactive); in the experiment on OVCAR-5 it was 34.5 µM (inactive). Further, the GI50 was 40 µM (inactive) in the experiment on OVCAR-8; 21.7 µM (inactive) in the experiment on SK-MEL-2; 34.3 µM (inactive) in the experiment with SK-MEL-5; 62.4 µM (inactive) with SK-OV-3; 35.4 µM (inactive) in the experiment on SW-620; 20 µM (inactive) with UO-31.

For `CS(=O)(=O)O[C@H]1CN2C[C@@H](O)[C@@H](O)[C@H]2[C@H]1CO.[B]`, the GI50 was 0.333 µM (active) in the experiment with CCRF-CEM; > 100 µM (inactive) in the experiment with COLO 205; more than 100 µM in the experiment with HCT-15; > 100 µM (inactive) in the experiment on HOP-62; > 100 µM (inactive) with IGROV-1; > 100 µM (inactive) with K562. The GI50 in the experiment on LOX IMVI, in the experiment on M14, in the experiment with MDA-MB-435, in the experiment with NCI-H226, in the experiment with OVCAR-5 and in the experiment on OVCAR-8 was > 100 µM (inactive) in each case. Besides, the GI50 in the experiment on SK-MEL-2, with SK-MEL-5, with SK-OV-3, in the experiment with SW-620 and with UO-31 was > 100 µM (inactive) in each case.

Regarding `CCCNC(=O)Nc1ccc2c(c1)Cc1cc(N(CCCl)CCCl)ccc1-2`, the GI50 with CCRF-CEM was 58.3 µM (inactive); in the experiment with COLO 205 it was 8.32 µM (inactive); with HCT-15, 16.5 µM; with HOP-62, 81.5 µM (inactive); with HOP-92, 25.2 µM (inactive); in the experiment on Hs-578T, 25.6 µM (inactive). For the same compound, the GI50 is 14.1 µM (inactive) in the experiment with IGROV-1; 10.9 µM (inactive) in the experiment with K562; 12.2 µM (inactive) with LOX IMVI; 79.4 µM (inactive) in the experiment on M14; 21.1 µM (inactive) in the experiment on MDA-MB-435; 76 µM (inactive) in the experiment on OVCAR-5. In addition, the GI50 in the experiment on OVCAR-8 was 26.9 µM (inactive); with SK-MEL-2 it was 29.2 µM (inactive); in the experiment on SK-MEL-5, 13.7 µM (inactive); in the experiment on SW-620, 28.6 µM (inactive); in the experiment on UO-31, 17.4 µM (inactive).

In the case of `CCOc1ccc(/N=C/c2ccc3ccccc3n2)cc1`, the GI50 is 35.7 µM (inactive) in the experiment with CCRF-CEM; > 100 µM (inactive) in the experiment on COLO 205; more than 100 µM in the experiment on HCT-15; > 100 µM (inactive) in the experiment with HOP-62; > 75.3 µM (inactive) in the experiment on HOP-92; > 100 µM (inactive) in the experiment with IGROV-1. For the same compound, the GI50 in the experiment with K562 was 49.8 µM (inactive); in the experiment with LOX IMVI, > 73.5 µM (inactive); in the experiment on M14, > 100 µM (inactive); in the experiment on NCI-H226 it was > 100 µM (inactive); with OVCAR-5, > 100 µM (inactive); with OVCAR-8 it was > 100 µM (inactive). The GI50 in the experiment with SK-MEL-2 is > 100 µM (inactive); in the experiment on SK-MEL-5, > 100 µM (inactive); with SK-OV-3, > 100 µM (inactive); with SW-620, > 100 µM (inactive); with UO-31, 61.8 µM (inactive).

Regarding `COC(=O)c1[nH]c(=S)[nH]c(=O)c1-c1ccc(Cl)cc1`, the GI50 in the experiment with CCRF-CEM is > 50 µM (inactive); with COLO 205, > 50 µM (inactive); in the experiment with HCT-15, more than 50 µM; in the experiment on HOP-62 it was > 50 µM (inactive); in the experiment on HOP-92, > 50 µM (inactive); with IGROV-1, > 50 µM (inactive). Moreover, the GI50 in the experiment with K562, with LOX IMVI, in the experiment on M14, in the experiment with NCI-H226, in the experiment with OVCAR-5 and with OVCAR-8 was > 50 µM (inactive) each time. For the same compound, the GI50 with SK-MEL-2, in the experiment with SK-MEL-5, in the experiment with SK-OV-3, in the experiment on SW-620 and with UO-31 was > 50 µM (inactive) each time.

As for `COC1OC(C)C(NC(=O)OCC(Cl)(Cl)Cl)C2OC(C)(C)OC12` (stereo not drawn), the GI50 in the experiment on CCRF-CEM was > 100 µM (inactive); with COLO 205, > 100 µM (inactive); in the experiment with HCT-15, more than 100 µM; with HOP-62, > 100 µM (inactive); in the experiment on HOP-92 it was > 100 µM (inactive); in the experiment with Hs-578T it was > 100 µM (inactive). The GI50 in the experiment with IGROV-1 was > 100 µM (inactive); with K562, > 100 µM (inactive); with LOX IMVI, > 10 µM (inactive); with M14, > 100 µM (inactive); with MDA-MB-435, > 100 µM (inactive); in the experiment on NCI-H226, > 100 µM (inactive). For the same compound, the GI50 in the experiment on OVCAR-5, with OVCAR-8, in the experiment with SK-MEL-5, in the experiment on SK-OV-3, in the experiment with SW-620 and in the experiment on UO-31 was > 100 µM (inactive) each time.
